Reference: patent US9850283B2, “Macrocyclic inhibitors of the PD-1/PD-L1 and CD80(B7-1)/PD-L1 protein/protein interactions” (BRISTOL-MYERS SQUIBB COMPANY, priority 2013, dated 2017)
pIC50: −log10 of the molar value. Read-outs that look alike come from different tables or passages of the source. Positions of bridges follow the written chain, without caps; N, C: chain ends. Non-standard residues stand in square brackets, D forms with d. Residues, ends and D or L forms follow the SMILES beside them. Phe(F5) = N[C@@H](Cc1c(F)c(F)c(F)c(F)c1F)C(=O)O; Phe(3-Cl) = N[C@@H](Cc1cccc(Cl)c1)C(=O)O; Phe(4-Br) = N[C@@H](Cc1ccc(Br)cc1)C(=O)O; Phe(4-F) = N[C@@H](Cc1ccc(F)cc1)C(=O)O; Bta = N[C@@H](Cc1csc2ccccc12)C(=O)O; NMeF = CN[C@@H](Cc1ccccc1)C(=O)O; hPhe = N[C@@H](CCc1ccccc1)C(=O)O; NMeE = CN[C@@H](CCC(=O)O)C(=O)O; NMeNle = CCCC[C@H](NC)C(=O)O; Sar = CNCC(=O)O

How the values were obtained:
[1] = target: T1, LK35.2-hPD-L1 cells / PE-labeled PD-1-Ig (Homo sapiens, UniProt Q9NZQ7); assay: LK35.2-hPD-L1 cell binding high-content screening assay; type: cell-based; details: cell line of CBA not given (LK35.2-hPD-L1 or 293T-hPD-L1)
T1 construct: expressed in transfected cells; host or cells: LK35.2 mouse B cell line
T1 sequence (Q9NZQ7 19-290): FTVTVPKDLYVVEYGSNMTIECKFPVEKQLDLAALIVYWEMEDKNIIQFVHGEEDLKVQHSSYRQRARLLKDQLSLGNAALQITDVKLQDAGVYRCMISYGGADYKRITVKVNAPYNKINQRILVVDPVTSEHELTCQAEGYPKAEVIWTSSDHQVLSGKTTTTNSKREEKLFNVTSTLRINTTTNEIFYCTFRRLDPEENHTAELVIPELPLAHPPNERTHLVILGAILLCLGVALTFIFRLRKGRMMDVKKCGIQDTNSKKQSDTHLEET
In short: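 Mouse LK35.2 B cells stably overexpressing human PD-L1 were cultured overnight in RPMI with 10% FCS, then given compound and PE-labeled human PD-1-Ig (1 nM final) for 1 h at 37 °C. After three dPBS washes, bound fluorescence was quantified by high-content imaging.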

Human PD-L1/PD-1 = target: T2, Human PD-L1/PD-1 (Homo sapiens, UniProt Q9NZQ7); assay: HTRF PD-1-Ig/PD-L1-His binding assay (human PD-L1)
T2 construct: made in house; host or cells: HEK293T
T2 sequence (Q9NZQ7 with tags, fused parts or gaps): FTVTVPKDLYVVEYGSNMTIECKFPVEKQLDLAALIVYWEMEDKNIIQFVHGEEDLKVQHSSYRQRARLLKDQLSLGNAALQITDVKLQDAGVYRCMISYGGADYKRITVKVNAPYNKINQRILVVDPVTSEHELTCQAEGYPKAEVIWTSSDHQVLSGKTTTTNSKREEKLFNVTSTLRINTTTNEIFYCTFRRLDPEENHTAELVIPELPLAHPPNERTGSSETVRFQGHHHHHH
In short: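 Readout: time-resolved FRET between Eu cryptate-labeled anti-Ig (1 nM final) and APC-labeled anti-His (20 nM final) antibodies. These detect interaction of Fc-fused PD-1 with His-tagged human PD-L1 in dPBS containing 0.1% BSA and 0.05% Tween-20.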

[2] = cluster symbol, read-out: CBA IC50 cluster
[3] = cluster symbol, read-out: HTRF IC50 cluster

Row | pIC50 [1, 2] | pIC50 (Human PD-L1/PD-1; [3]) | pIC50 ([1]; read-out: CBA IC50 value) | pIC50 (Human PD-L1/PD-1; read-out: HTRF IC50 value) | SMILES
1 | 7.14 to 8.32 | 8.17 to 9.41 | – | – | CCCC[C@H]1C(=O)N(C)CC(=O)N[C@@H](CC(=O)O)C(=O)N[C@@H](C(C)C)C(=O)N(C)[C@@H](Cc2ccccc2)C(=O)N[C@@H](Cc2ccc(O)cc2)C(=O)N(C)[C@@H](CCC(=O)O)C(=O)N[C@@H](Cc2csc3ccccc23)C(=O)N[C@@H](Cc2ccc(O)cc2)C(=O)N[C@@H](CC(C)C)C(=O)N[C@H](C(=O)NCC(N)=O)CSCC(=O)N[C@@H](Cc2ccccc2)C(=O)N(C)[C@@H](Cc2ccccc2)C(=O)N1C [Example 3073] ({CH2CO}-F[NMeF][NMeNle][Sar]DV[NMeF]Y[NMeE][Bta]YLCG-NH2; thioether N-13)
2 | 7.14 to 8.32 | 7.52 to 8.17 | – | – | CCCC[C@H]1C(=O)N(C)CC(=O)N[C@@H](CC(=O)O)C(=O)N[C@@H](C(C)C)C(=O)N(C)[C@@H](Cc2ccccc2)C(=O)N[C@@H](Cc2ccc(O)cc2)C(=O)N(C)CC(=O)N[C@@H](Cc2csc3ccccc23)C(=O)N[C@@H](Cc2ccc(O)cc2)C(=O)N[C@@H](CCC(=O)O)C(=O)N[C@H](C(=O)NCC(N)=O)CSCC(=O)N[C@@H](Cc2ccccc2)C(=O)N(C)[C@@H](Cc2ccccc2)C(=O)N1C [Example 3074] ({CH2CO}-F[NMeF][NMeNle][Sar]DV[NMeF]Y[Sar][Bta]YECG-NH2; thioether N-13)
3 | < 7.13 | < 7.52 | – | – | CCCC[C@H]1C(=O)N(C)CC(=O)N[C@@H](CC(=O)O)C(=O)N[C@@H](C(C)C)C(=O)N(C)[C@@H](Cc2ccccc2)C(=O)N[C@@H](CCC(=O)O)C(=O)N(C)[C@@H](CCC(=O)O)C(=O)N[C@@H](Cc2c[nH]c3ccccc23)C(=O)N[C@@H](Cc2ccc(O)cc2)C(=O)N[C@@H](CCC(=O)O)C(=O)N[C@H](C(=O)NCC(N)=O)CSCC(=O)N[C@@H](Cc2ccccc2)C(=O)N(C)[C@@H](Cc2ccccc2)C(=O)N1C [Example 3075] (HELM PEPTIDE1{[O=C(C[*:3])[*:2]].F.[meF].[CCCC[C@@H](C(=O)[*:2])N(C)[*:1]].[Sar].D.V.[meF].E.[meE].W.Y.E.C.G.[am]}$PEPTIDE1,PEPTIDE1,1:R3-14:R3$$$V2.0)
4 | 7.14 to 8.32 | 8.17 to 9.41 | – | – | CCCC[C@H]1C(=O)N(C)CC(=O)N[C@@H](CC(=O)O)C(=O)N[C@@H](C(C)C)C(=O)N(C)[C@@H](Cc2ccccc2)C(=O)N[C@@H](Cc2ccc(O)cc2)C(=O)N(C)CC(=O)N[C@@H](Cc2c[nH]c3ccccc23)C(=O)N[C@@H](Cc2ccc(F)cc2)C(=O)N[C@@H](CC(C)C)C(=O)N[C@H](C(=O)NCC(N)=O)CSCC(=O)N[C@@H](Cc2ccccc2)C(=O)N(C)[C@@H](Cc2ccccc2)C(=O)N1C [Example 3076] ({CH2CO}-F[NMeF][NMeNle][Sar]DV[NMeF]Y[Sar]W[Phe(4-F)]LCG-NH2; thioether N-13)
5 | < 7.13 | < 7.52 | – | – | CCCC[C@H]1C(=O)N(C)CC(=O)N[C@@H](CC(=O)O)C(=O)N[C@@H](C(C)C)C(=O)N(C)[C@@H](Cc2ccccc2)C(=O)N[C@@H](Cc2ccc(F)cc2)C(=O)N(C)CC(=O)N[C@@H](Cc2c[nH]c3ccccc23)C(=O)N[C@@H](Cc2ccc(O)cc2)C(=O)N[C@@H](CC(C)C)C(=O)N[C@H](C(=O)NCC(N)=O)CSCC(=O)N[C@@H](Cc2ccccc2)C(=O)N(C)[C@@H](Cc2ccccc2)C(=O)N1C [Example 3077] ({CH2CO}-F[NMeF][NMeNle][Sar]DV[NMeF][Phe(4-F)][Sar]WYLCG-NH2; thioether N-13)
6 | < 7.13 | < 7.52 | – | – | CCCC[C@H]1C(=O)N(C)CC(=O)N[C@@H](CC(=O)O)C(=O)N[C@@H](C(C)C)C(=O)N(C)[C@@H](Cc2ccccc2)C(=O)N[C@@H](Cc2ccc(O)cc2)C(=O)N(C)CC(=O)N[C@@H](Cc2c[nH]c3ccccc23)C(=O)N[C@@H](Cc2ccc(O)cc2)C(=O)N[C@@H](CC(C)C)C(=O)N[C@H](C(=O)NCC(N)=O)CSCC(=O)N[C@@H](Cc2c(F)c(F)c(F)c(F)c2F)C(=O)N(C)[C@@H](Cc2ccccc2)C(=O)N1C [Example 3078] ({CH2CO}-[Phe(F5)][NMeF][NMeNle][Sar]DV[NMeF]Y[Sar]WYLCG-NH2; thioether N-13)
7 | 7.14 to 8.32 | < 7.52 | – | – | CCCC[C@H]1C(=O)N(C)CC(=O)N[C@@H](CC(=O)O)C(=O)N[C@@H](C(C)C)C(=O)N(C)[C@@H](Cc2ccccc2)C(=O)N[C@@H](Cc2c(F)c(F)c(F)c(F)c2F)C(=O)N(C)CC(=O)N[C@@H](Cc2c[nH]c3ccccc23)C(=O)N[C@@H](Cc2ccc(O)cc2)C(=O)N[C@@H](CC(C)C)C(=O)N[C@H](C(=O)NCC(N)=O)CSCC(=O)N[C@@H](Cc2ccccc2)C(=O)N(C)[C@@H](Cc2ccccc2)C(=O)N1C [Example 3079] ({CH2CO}-F[NMeF][NMeNle][Sar]DV[NMeF][Phe(F5)][Sar]WYLCG-NH2; thioether N-13)
8 | – | – | < 5.00 | < 5.00 | CCCC[C@H]1C(=O)N(C)CC(=O)N[C@@H](CC(=O)O)C(=O)N[C@@H](C(C)C)C(=O)N(C)[C@@H](Cc2ccccc2)C(=O)N[C@@H](Cc2ccc(O)cc2)C(=O)N(C)CC(=O)N[C@@H](Cc2c[nH]c3ccccc23)C(=O)N[C@@H](Cc2c(F)c(F)c(F)c(F)c2F)C(=O)N[C@@H](CC(C)C)C(=O)N[C@H](C(=O)NCC(N)=O)CSCC(=O)N[C@@H](Cc2ccccc2)C(=O)N(C)[C@@H](Cc2ccccc2)C(=O)N1C [Example 3080] ({CH2CO}-F[NMeF][NMeNle][Sar]DV[NMeF]Y[Sar]W[Phe(F5)]LCG-NH2; thioether N-13)
9 | 7.14 to 8.32 | < 7.52 | – | – | CCCC[C@H]1C(=O)N(C)CC(=O)N[C@@H](CC(=O)O)C(=O)N[C@@H](C(C)C)C(=O)N(C)[C@@H](Cc2ccccc2)C(=O)N[C@@H](Cc2ccc(O)cc2)C(=O)N(C)CC(=O)N[C@@H](Cc2c[nH]c3ccccc23)C(=O)N[C@@H](Cc2ccc(O)cc2)C(=O)N[C@@H](CC(C)C)C(=O)N[C@H](C(=O)NCC(N)=O)CSCC(=O)N[C@@H](Cc2ccc(Br)cc2)C(=O)N(C)[C@@H](Cc2ccccc2)C(=O)N1C [Example 3081] ({CH2CO}-[Phe(4-Br)][NMeF][NMeNle][Sar]DV[NMeF]Y[Sar]WYLCG-NH2; thioether N-13)
10 | < 7.13 | < 7.52 | – | – | CCCC[C@H]1C(=O)N(C)CC(=O)N[C@@H](CC(=O)O)C(=O)N[C@@H](C(C)C)C(=O)N(C)[C@@H](Cc2ccccc2)C(=O)N[C@@H](Cc2ccc(O)cc2)C(=O)N(C)CC(=O)N[C@@H](Cc2c[nH]c3ccccc23)C(=O)N[C@@H](Cc2ccc(O)cc2)C(=O)N[C@@H](CC(C)C)C(=O)N[C@H](C(=O)NCC(N)=O)CSCC(=O)N[C@@H](CCc2ccccc2)C(=O)N(C)[C@@H](Cc2ccccc2)C(=O)N1C [Example 3082] ({CH2CO}-[hPhe][NMeF][NMeNle][Sar]DV[NMeF]Y[Sar]WYLCG-NH2; thioether N-13)
11 | 8.33 to 9.80 | 8.17 to 9.41 | – | – | CCCC[C@H]1C(=O)N(C)CC(=O)N[C@@H](CC(=O)O)C(=O)N[C@@H](C(C)C)C(=O)N(C)[C@@H](Cc2ccccc2)C(=O)N[C@@H](Cc2ccc(O)cc2)C(=O)N(C)CC(=O)N[C@@H](Cc2c[nH]c3ccccc23)C(=O)N[C@@H](Cc2ccc(O)cc2)C(=O)N[C@@H](CC(C)C)C(=O)N[C@H](C(=O)NCC(N)=O)CSCC(=O)N[C@@H](Cc2cccc(Cl)c2)C(=O)N(C)[C@@H](Cc2ccccc2)C(=O)N1C [Example 3086] ({CH2CO}-[Phe(3-Cl)][NMeF][NMeNle][Sar]DV[NMeF]Y[Sar]WYLCG-NH2; thioether N-13)
12 | < 7.13 | < 7.52 | – | – | CCCC[C@H]1C(=O)N(C)CC(=O)N[C@@H](CC(=O)O)C(=O)N[C@@H](C(C)C)C(=O)N(C)[C@@H](Cc2ccccc2)C(=O)N[C@@H](Cc2ccc(O)cc2)C(=O)N(C)CC(=O)N[C@@H](Cc2c[nH]c3ccccc23)C(=O)N[C@@H](Cc2ccc(O)cc2)C(=O)N[C@@H](CC(C)C)C(=O)N[C@H](C(=O)NCC(N)=O)C(C)(C)SCC(=O)N[C@@H](Cc2ccccc2)C(=O)N(C)[C@@H](Cc2ccccc2)C(=O)N1C [Example 3087] (HELM PEPTIDE1{[O=C(C[*:3])[*:2]].F.[meF].[CCCC[C@@H](C(=O)[*:2])N(C)[*:1]].[Sar].D.V.[meF].Y.[Sar].W.Y.L.[Pen].G.[am]}$PEPTIDE1,PEPTIDE1,1:R3-14:R3$$$V2.0)
13 | < 7.13 | < 7.52 | – | – | CCCC[C@H]1C(=O)N(C)CC(=O)N[C@@H](CC(=O)O)C(=O)N[C@@H](C(C)C)C(=O)N(C)[C@@H](Cc2ccccc2)C(=O)N[C@@H](Cc2ccc(O)cc2)C(=O)N(C)CC(=O)N[C@@H](Cc2c[nH]c3ccccc23)C(=O)N[C@@H](Cc2ccc(O)cc2)C(=O)N[C@@H](CC(C)C)C(=O)N[C@H](C(=O)NCC(N)=O)CSCC(=O)N[C@@H](Cc2ccc(OC)cc2)C(=O)N(C)[C@@H](Cc2ccccc2)C(=O)N1C [Example 3089] ({CH2CO}-Y(Me)[NMeF][NMeNle][Sar]DV[NMeF]Y[Sar]WYLCG-NH2; thioether N-13)
14 | < 7.13 | < 7.52 | – | – | CCCC[C@H]1C(=O)N(C)CC(=O)N[C@@H](CC(=O)O)C(=O)N[C@@H](C(C)C)C(=O)N(C)[C@@H](Cc2ccccc2)C(=O)N[C@@H](Cc2ccc(O)cc2)C(=O)N(C)CC(=O)N[C@@H](Cc2c[nH]c3ccccc23)C(=O)N[C@@H](Cc2ccc(O)cc2)C(=O)N[C@@H](CC(C)C)C(=O)N[C@H](C(=O)NCC(N)=O)CSCC(=O)N[C@@H](Cc2c[nH]c3ccccc23)C(=O)N(C)[C@@H](Cc2ccccc2)C(=O)N1C [Example 3090] (HELM PEPTIDE1{[O=C(C[*:3])[*:2]].W.[meF].[CCCC[C@@H](C(=O)[*:2])N(C)[*:1]].[Sar].D.V.[meF].Y.[Sar].W.Y.L.C.G.[am]}$PEPTIDE1,PEPTIDE1,1:R3-14:R3$$$V2.0)
